These are literature values, as cited in patent publication US12208072B2, “Compositions for removing necrotic or infected tissues from body surface lesions and from oral cavity” (DEBx Medical Holding B.V., priority 2019, dated 2025).

For data set [1] the following is noted: for Ka1: first dissociation constant; for Ka2: second dissociation constant.
For data set [2] the following is noted: 25° C.

As for Anilinium ion, the Ka1 in data set [1] was 2.50 × 10^−5.
The pKa is the negative logarithm of the acid dissociation constant. Regarding `O=[N+]([O-])O` [Nitric], the pKa in data set [2] is on record as −1.4.
In the case of `OCl` [Hypochlorous], the Ka1 in data set [1] is 3.0 × 10^−8.
Regarding `O=C(O)CCC(=O)O` [Succinic], in data set [1], the Ka1 was 6.21 × 10^−5 and the Ka2 is on record as 2.31 × 10^−6.
`O=C(O)CC(O)C(=O)O` (stereo not drawn) [Malic]: in data set [1], the Ka1 is listed as 3.48 × 10^−4 and the Ka2 is on record as 8.00 × 10^−6.
As to `O=C(O)O` [Carbonic], in data set [1], the Ka1 is 4.44 × 10^−7 and the Ka2 is 4.69 × 10^−11.
As to `OP(O)O` [Phosphorous], in data set [1], the Ka1 was 3 × 10^−2 and the Ka2 is listed as 1.62 × 10^−7.
`OB(O)O` [Boric]: the Ka1 in data set [1] is reported as 5.81 × 10^−10.
